Laboratory results: patent US20070203137A1, “New Salt” (ASTRAZENECA AB, priority 2006, published 2007)
Structures can show the parent of a compound that is named as a salt.

Tests used:
[1] = Hygroscopicity by Dynamic Vapour Sorption Analysis (DVS); type: physicochemical; details: 25° C.
Experimental: Dynamic Vapour Sorption Analysis (DVS)
The studies were undertaken using Dynamic Vapour Sorption Apparatus (DVS, Surface Measurement Systems, London UK). The apparatus consists of Cahn micobalance housed inside a temperature-controled cabinet. All experiments were performed at 25° C. The DVS was used to characterize the moisture uptake (w/w %) at different relative humidities (RH). Samples (5-10 mg) were weighed directly into the DSV sample cup and exposed to different relative humidities.

[2] = Photo stability of bulk substance (Suntest CPS+ cabinet); details: 29 hours
Experimental: The exposure was 250 Wh/m^2 and 1.2 million lux hours over 29 hours.

Row | moisture uptake ([1]; 40% relative humidity) [w/w %] | moisture uptake ([1]; 60% relative humidity) [w/w %] | moisture uptake ([1]; 80% relative humidity) [w/w %] | moisture uptake ([1]; 40% relative humidity, citrate) [w/w %] | moisture uptake ([1]; 60% relative humidity, citrate) [w/w %] | moisture uptake ([1]; 80% relative humidity, citrate) [w/w %] | hygroscopicity compared with the hydrochloride salt ([1]; DVS) | photo stability compared with the hydrochloride salt and the free base [2] | Structure (SMILES)
1 | 8.7 | 11.5 | 13.0 |  |  |  |  |  | N#Cc1ccc2[nH]c(O)c(-c3ccc(CN4CCOCC4)cn3)c2c1 [HCl, hydrochloride salt of 2-hydroxy-3-[5-(morpholin-4-ylmethyl)pyridin-2-yl]1H-indole-5-carbonitrile, reference compound]
2 |  |  |  | 7.1 | 7.6 | 8.0 | lower hygroscopicity | much higher photo stability | N#Cc1ccc2[nH]c(O)c(-c3ccc(CN4CCOCC4)cn3)c2c1 [Citrate, 2-hydroxy-3-[5-(morpholin-4-ylmethyl)pyridin-2-yl]1H-indole-5-carbonitrile citrate]
